Laboratory results taken from patent US10683553B2, “Method for determining sensitivity to simultaneous inhibitor against PARP and Tankyrase” (THE ASAN FOUNDATION, priority 2015, dated 2020).
“Also recorded” adds a separate entry of the source.

Legend:
[1] = system: HCT8 human colon cancer cell line; assay: Trypan blue staining apoptosis assay; assay type: cell-based; details: HCT8 (p53 WT/LIG4 WT); 25 μM and 50 μM, 48 hours
Description: (§1) In order to analyze the degree of apoptosis of Compounds A and B, which are novel PARP/Tankyrase simultaneous inhibitors, in a cell line RKO in which the p53 genotype is a normal type and an LIG4 genotype is a mutant type, a cell line SW620 in which the p53 genotype is a mutant type and an LIG4 genotype is a normal type, a cell line HCT8 in which the p53 genotype and an LIG4 genotype are normal, and a cell line KM12C in which the p53 genotype and an LIG4 genotype are mutant, the human colon cancer cell lines of RKO, HCT, SW620 and KM12C with different p53 genotype and LIG4 genotype were cultured in RPMI1640 (10% FBS, 1% penicillin/streptomycin) and cultured in a 60 mm plate at 1×10^5 per well for 24 hours at 37° C. Compounds A and B, which are novel PARP/Tankyrase simultaneous inhibitors, and olaparib, which is a competitive drug PARP inhibitor, and NVP-TNKS656, which is a Tankyrase inhibitor, were treated with each of 25 μM and 50 μM. After 48 hours of culturing, the number of cells was measured by trypan blue staining assay to confirm the degree of apoptosis.

[2] = system: KM12C human colon cancer cell line; assay: Trypan blue staining apoptosis assay; assay type: cell-based; details: KM12C (p53 MT/LIG4 MT); 25 μM and 50 μM, 48 hours
Description: as §1

[3] = system: RKO human colon cancer cell line; assay: Trypan blue staining apoptosis assay; assay type: cell-based; details: RKO (p53 WT/LIG4 MT); 25 μM and 50 μM, 48 hours
Description: (§2) In order to analyze the degree of apoptosis of Compound A, which is a novel PARP/Tankyrase simultaneous inhibitor according to a p53 genotype and LIG4 genotype, the present inventors treated a novel PARP/Tankyrase simultaneous inhibitor, Compound A, and a competitive drug PARP inhibitor, olaparib, in RKO, LoVo human colon cancer cell line in which the p53 gene is a normal type and the LIG4 gene is a mutant type and an SW620 human colon cancer cell line in which the p53 gene is a mutant type and the LIG4 gene is a normal type. The number of cells was measured by trypan blue staining assay to confirm the degree of apoptosis. The conditions and methods of the experiment were as follows: RKO, LoVo human colon cancer cell line in which the p53 gene is a normal type and the LIG4 gene is a mutant type and the SW620 human colon cancer cell line in which the p53 gene is a mutant type and the LIG4 gene is a normal type were cultured in RPMI1640 (10% FBS, 1% penicillin/streptomycin) and cultured in a 60 mm plate at 1×10^5 per well for 24 hours at 37° C. Compound A, which is a novel PARP/Tankyrase simultaneous inhibitor, and olaparib, which is a competitive drug PARP inhibitor, were treated with each of 25 μM and 50 μM and were cultured for 48 hours. The number of cells was measured by trypan blue staining assay to confirm the degree of apoptosis.
In order to analyze the degree of apoptosis of Compound A, which is a novel PARP/Tankyrase simultaneous inhibitor, according to the p53 genotype and an LIG4 genotype, the present inventors treated Compounds A and B, which are novel PARP/Tankyrase simultaneous inhibitors, in the RKO and LoVo human colon cancer cell lines in which the p53 gene is a normal type and an LIG4 gene is a mutant type. Then, the number of cells was measured by trypan blue staining assay to confirm the degree of apoptosis. The RKO and LoVo human colon cancer cell lines were cultured under the same conditions as in Example 5. Compounds A and B, which are novel PARP/Tankyrase simultaneous inhibitors, were treated with 25 μM and 50 μM, respectively, for 48 hours. After 48 hours of culturing, the number of cells was measured by trypan blue staining assay to confirm the degree of apoptosis. […]

[4] = system: LoVo human colon cancer cell line; assay: Trypan blue staining apoptosis assay; assay type: cell-based; details: LoVo (p53 WT/LIG4 MT); 25 μM and 50 μM, 48 hours
Description: as §2
In order to analyze the degree of apoptosis of Compound A, which is a novel PARP/Tankyrase simultaneous inhibitor, according to the p53 genotype and an LIG4 genotype, the present inventors treated Compounds A and B, which are novel PARP/Tankyrase simultaneous inhibitors, in the RKO and LoVo human colon cancer cell lines in which the p53 gene is a normal type and an LIG4 gene is a mutant type. Then, the number of cells was measured by trypan blue staining assay to confirm the degree of apoptosis. The RKO and LoVo human colon cancer cell lines were cultured under the same conditions as in Example 5. […] After 48 hours of culturing, the number of cells was measured by trypan blue staining assay to confirm the degree of apoptosis.

[5] = system: SW620 human colon cancer cell line; assay: Trypan blue staining apoptosis assay; assay type: cell-based; details: SW620 (p53 MT/LIG4 WT); 25 μM and 50 μM, 48 hours
Description: as §2, §1

[6] = system: KM12C human colon cancer cell line; assay: Xenograft tumor inhibition; assay type: in vivo, nude mouse (BALB/c-nude); details: KM12C (p53 MT/LIG4 MT) xenograft, orally 25 mpk and 50 mpk daily
Description: (§3) In order to analyze the tumor inhibition effect on Compound A, which is a novel PARP/Tankyrase simultaneous inhibitor, in an in vivo animal model when a p53 genotype and an LIG4 genotype are mutant types, the present inventors transplanted the KM12C human colon cancer cell line in which a p53 genotype and an LIG4 genotype are mutant types into a 6-week-old nude mouse (BALB/c-nude, purchased from the central experimental animal) and administered with Compound A, which is a novel PARP/Tankyrase simultaneous inhibitor, and olaparib, which is a competitive drug PARP inhibitor. Then, the size of tumor was measured to confirm the degree of tumor inhibition effect. The conditions and methods of the experiment were as follows: KM12C human colon cancer cell line in which a p53 genotype and an LIG4 genotype are mutant types was cultured in RPMI1640 (10% FBS, 1% penicillin/streptomycin). When the size of the tumor reached 100 mm^3 after being transplanted into a nude mouse per 1×10^7, Compound A, which is a novel PARP/Tankyrase simultaneous inhibitor, and olaparib, which is a competitive drug PARP inhibitor, were orally administered at 25 mpk and 50 mpk daily for a total of 18 days. The size of a tumor was measured every three days. After the completion of drug administration, the tumors were harvested and weighed.
as §3, with “on Compound B, which is” for “on Compound A, which is”, “with Compound B, which is” for “with Compound A, which is”, “PARP/Tankyrase simultaneous inhibitor. Then,” for “PARP/Tankyrase simultaneous inhibitor, and olaparib, which is a competitive drug PARP inhibitor. Then,”, “1×10^7, Compound B, which is” for “1×10^7, Compound A, which is”, “simultaneous inhibitor, was orally administered” for “simultaneous inhibitor, and olaparib, which is a competitive drug PARP inhibitor, were orally administered”, “total of 15 days. The” for “total of 18 days. The”

Row | Structure (SMILES) | degree of apoptosis (trypan blue cell count) [1] | degree of apoptosis (trypan blue cell count) [2] | degree of apoptosis (trypan blue cell count) [3] | degree of apoptosis (trypan blue cell count) [4] | degree of apoptosis (trypan blue cell count) [5] | tumor size ([6]; 15 days) | tumor weight ([6]; 15 days) | tumor size ([6]; 18 days) | tumor weight ([6]; 18 days)
1 | N#Cc1ccc(N2CCN(Cc3ccc4c5c(c(=O)[nH]c4c3)CCCN5)CC2)nc1 [Compound B, 6-{4-[(5-oxo-1,2,3,4,5,6-hexahydrobenzo[h][1,6]naphthyridin-8-yl)methyl]piperazin-1-yl}nicotinonitrile] | No apoptosis occurred | No apoptosis occurred | apoptosis effect is high by virtue of Compound B as compared to Compound A; also recorded: possible to observe the apoptosis | apoptosis effect is high by virtue of Compound B as compared to Compound A | No apoptosis occurred | no change | no change |  | 
2 | O=C(c1cc(Cc2n[nH]c(=O)c3ccccc23)ccc1F)N1CCN(C(=O)C2CC2)CC1 [olaparib, reference compound] | No apoptosis occurred | No apoptosis occurred | no apoptosis effect was shown; also recorded: no change in apoptosis | no apoptosis effect was shown | low apoptosis effect; also recorded: No apoptosis occurred |  |  | no change | no change
3 | CCOc1cc(CN(C)C)cc2[nH]c(=O)c3c(c12)NCCC3 [Compound A, 8-[(dimethylamino)methyl]-10-ethoxy-1,2,3,4-tetrahydrobenzo[h][1,6]naphthyridin-5(6H)-one] | No apoptosis occurred | No apoptosis occurred | apoptosis was induced; also recorded: possible to observe the apoptosis | apoptosis was induced | low apoptosis effect; also recorded: No apoptosis occurred |  |  | no change | no change
